PubChem BioAssay AID330 (DTP/NCI, 2004)
Where “and” joins values, the source holds several entries; their conditions need not be identical. Equal entries are not always repeated. Inconclusive results and toxic doses are left out.

Tested on: P388 leukemia ip, CD2F1 mice, survival T/C
Test: NCI In Vivo Anticancer Drug Screen. Data for tumor model P388 Leukemia (intraperitoneal) in CD2F1 (CDF1) mice
Details: endpoint: median survival time, higher = longer survival
In short: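 Mice carrying the transplanted tumor received test compound or vehicle. Survival was recorded in each group, and the value is the treated-group measurement divided by that of the vehicle-treated control group.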

[1] = dose: 50.0 mg/kg/injection, schedule: Q01DX005 (ip), vehicle: saline with Tween-80
[2] = dose: 200.0 mg/kg/injection, schedule: Q01DX005 (ip), vehicle: saline with Tween-80
[3] = dose: 12.5 mg/kg/injection, schedule: Q01DX009 (ip), vehicle: saline with Tween-80
[4] = dose: 12.5 mg/kg/injection, schedule: Q01DX009 (ip), vehicle: distilled water + Tween-80
[5] = dose: 25.0 mg/kg/injection, schedule: Q01DX005 (ip), vehicle: Klucel (hydroxypropylcellulose) (HPC)
[6] = dose: 50.0 mg/kg/injection, schedule: Q01DX005 (ip), vehicle: Klucel (hydroxypropylcellulose) (HPC)
[7] = dose: 60.0 mg/kg/injection, schedule: Q01DX005 (ip), vehicle: saline with Tween-80
[8] = dose: 120.0 mg/kg/injection, schedule: Q01DX005 (ip), vehicle: saline with Tween-80
[9] = dose: 240.0 mg/kg/injection, schedule: Q01DX005 (ip), vehicle: saline with Tween-80
[10] = dose: 100.0 mg/kg/injection, schedule: Q01DX005 (ip), vehicle: saline with Tween-80

C/C(=N\N=C(\[Se])N(C)C)c1ccccn1
T/C (dose: 12.5 mg/kg/injection, schedule: Q04DX003 (ip), vehicle: saline with Tween-80): 106 % of control
T/C (dose: 25.0 mg/kg/injection, schedule: Q04DX003 (ip), vehicle: saline with Tween-80): 106 % of control
T/C (dose: 50.0 mg/kg/injection, schedule: Q04DX003 (ip), vehicle: saline with Tween-80): 106 % of control

CCOC(=O)Nc1ccc(C2OCCS2)cc1 (centres undefined)
T/C [1]: 86 % of control
T/C [2]: 90 % of control

COC(=O)C1(C)CCCC2(C)C3CCC4CC3(C=C4CO)CCC12 (centres undefined)
T/C (dose: 10.0 mg/kg/injection, schedule: Q01DX005 (ip), vehicle: Klucel (hydroxypropylcellulose) (HPC)): 108 % of control
T/C (dose: 20.0 mg/kg/injection, schedule: Q01DX005 (ip), vehicle: Klucel (hydroxypropylcellulose) (HPC)): 100 % of control
T/C (dose: 40.0 mg/kg/injection, schedule: Q01DX005 (ip), vehicle: Klucel (hydroxypropylcellulose) (HPC)): 100 % of control
T/C (dose: 80.0 mg/kg/injection, schedule: Q01DX005 (ip), vehicle: Klucel (hydroxypropylcellulose) (HPC)): 93 % of control

CC(C)N1C(=O)C=C(c2ccc([N+](=O)[O-])cc2)C1=O
T/C [3]: 105 % of control
T/C (dose: 25.0 mg/kg/injection, schedule: Q01DX009 (ip), vehicle: saline with Tween-80): 105 % of control
T/C (dose: 50.0 mg/kg/injection, schedule: Q01DX009 (ip), vehicle: saline with Tween-80): 106 % of control

CC(=O)OCC1OC(n2cc(CI)nn2)C(OC(C)=O)C(OC(C)=O)C1OC(C)=O (centres undefined)
T/C (dose: 6.25 mg/kg/injection, schedule: Q01DX009 (ip), vehicle: distilled water + Tween-80): 102 % of control and 103 % of control
T/C [4]: 103 % of control and 96 % of control
T/C (dose: 25.0 mg/kg/injection, schedule: Q01DX009 (ip), vehicle: distilled water + Tween-80): 111 % of control and 115 % of control
T/C (dose: 50.0 mg/kg/injection, schedule: Q01DX009 (ip), vehicle: distilled water + Tween-80): 102 % of control and 115 % of control
T/C (dose: 100.0 mg/kg/injection, schedule: Q01DX009 (ip), vehicle: distilled water + Tween-80): 115 % of control

CC1(C)CC2C1(O)CCC1(C)C(O)C=CC21CO (centres undefined)
T/C (dose: 6.0 mg/kg/injection, schedule: Q01DX005 (ip), vehicle: Klucel (hydroxypropylcellulose) (HPC)): 98 % of control
T/C (dose: 12.0 mg/kg/injection, schedule: Q01DX005 (ip), vehicle: Klucel (hydroxypropylcellulose) (HPC)): 95 % of control
T/C (dose: 24.0 mg/kg/injection, schedule: Q01DX005 (ip), vehicle: Klucel (hydroxypropylcellulose) (HPC)): 100 % of control
T/C [5]: 93 % of control
T/C (dose: 48.0 mg/kg/injection, schedule: Q01DX005 (ip), vehicle: Klucel (hydroxypropylcellulose) (HPC)): 90 % of control
T/C [6]: 93 % of control
T/C (dose: 100.0 mg/kg/injection, schedule: Q01DX005 (ip), vehicle: Klucel (hydroxypropylcellulose) (HPC)): 90 % of control

COc1cccc2cc(-c3c[nH]c4ccccc34)c(=O)oc12
T/C [7]: 105 % of control
T/C [8]: 98 % of control
T/C [9]: 95 % of control

O=C1CSC(c2c(O)ccc3ccccc23)N1CCN1C(=O)CSC1c1c(O)ccc2ccccc12 (centres undefined)
T/C (dose: 100.0 mg/kg/injection, schedule: Q01DX001 (ip), vehicle: saline with Tween-80): 97 % of control
T/C (dose: 200.0 mg/kg/injection, schedule: Q01DX001 (ip), vehicle: saline with Tween-80): 92 % of control
T/C (dose: 400.0 mg/kg/injection, schedule: Q01DX001 (ip), vehicle: saline with Tween-80): 90 % of control

Oc1ccccc1-c1cc(-c2ccccc2)nc(NCCCCCCCCNc2nc(-c3ccccc3)cc(-c3ccccc3O)n2)n1
T/C (dose: 100.0 mg/kg/injection, schedule: Q04DX003 (ip), vehicle: saline): 92 % of control
T/C (dose: 200.0 mg/kg/injection, schedule: Q04DX003 (ip), vehicle: saline): 94 % of control
T/C (dose: 400.0 mg/kg/injection, schedule: Q04DX003 (ip), vehicle: saline): 88 % of control

Nc1ccccc1-c1nc2ccncc2[nH]1
T/C (dose: 25.0 mg/kg/injection, schedule: Q01DX009 (ip), vehicle: Klucel (hydroxypropylcellulose) (HPC)): 102 % of control
T/C (dose: 50.0 mg/kg/injection, schedule: Q01DX009 (ip), vehicle: Klucel (hydroxypropylcellulose) (HPC)): 105 % of control
T/C (dose: 100.0 mg/kg/injection, schedule: Q01DX009 (ip), vehicle: Klucel (hydroxypropylcellulose) (HPC)): 101 % of control
T/C (dose: 200.0 mg/kg/injection, schedule: Q01DX009 (ip), vehicle: Klucel (hydroxypropylcellulose) (HPC)): 100 % of control

COC(=O)N1c2ccccc2N(C(=O)OC)C1C#N
T/C [7]: 108 % of control
T/C [8]: 98 % of control
T/C [9]: 112 % of control

CCC(CC)(C(=O)Nc1ccc2c(c1)c(=O)c1ccccc1n2C)C(=O)Nc1ccc2c(c1)c(=O)c1ccccc1n2C
T/C [1]: 100 % of control
T/C [10]: 101 % of control
T/C [2]: 105 % of control

COC(=N)c1nnn(-c2ccccc2)n1
T/C (dose: 100.0 mg/kg/injection, schedule: Q04DX003 (ip), vehicle: Klucel (hydroxypropylcellulose) (HPC)): 97 % of control
T/C (dose: 200.0 mg/kg/injection, schedule: Q04DX003 (ip), vehicle: Klucel (hydroxypropylcellulose) (HPC)): 97 % of control
T/C (dose: 400.0 mg/kg/injection, schedule: Q04DX003 (ip), vehicle: Klucel (hydroxypropylcellulose) (HPC)): 95 % of control

CCn1c(Cl)c(C=O)c2ccccc21
T/C (dose: 100.0 mg/kg/injection, schedule: Q01DX001 (ip), vehicle: Klucel (hydroxypropylcellulose) (HPC)): 100 % of control
T/C (dose: 200.0 mg/kg/injection, schedule: Q01DX001 (ip), vehicle: Klucel (hydroxypropylcellulose) (HPC)): 92 % of control
T/C (dose: 400.0 mg/kg/injection, schedule: Q01DX001 (ip), vehicle: Klucel (hydroxypropylcellulose) (HPC)): 95 % of control

COc1c(CC(C)O)c2c3c(CC(C)O)c(OC)c(=O)c4cc(O)c5c(c6c(c(O)cc(c1=O)c26)OCO5)c43 (centres undefined)
T/C (dose: 25.0 mg/kg/injection, schedule: Q04DX002 (ip), vehicle: saline with Tween-80): 101 % of control
T/C (dose: 50.0 mg/kg/injection, schedule: Q04DX002 (ip), vehicle: saline with Tween-80): 109 % of control
T/C (dose: 100.0 mg/kg/injection, schedule: Q04DX002 (ip), vehicle: saline with Tween-80): 101 % of control
T/C (dose: 200.0 mg/kg/injection, schedule: Q04DX002 (ip), vehicle: saline with Tween-80): 115 % of control
T/C (dose: 400.0 mg/kg/injection, schedule: Q04DX002 (ip), vehicle: saline with Tween-80): 115 % of control

CC(=O)Nc1ccc(S(=O)(=O)NCCSS(=O)(=O)O)cc1
T/C [1]: 101 % of control
T/C [10]: 109 % of control
T/C [2]: 109 % of control

C=CC(=NC(C)(C)C)Nc1ccccc1C#N
T/C (dose: 3.12 mg/kg/injection, schedule: Q01DX009 (ip), vehicle: saline with Tween-80): 106 % of control
T/C (dose: 6.25 mg/kg/injection, schedule: Q01DX009 (ip), vehicle: saline with Tween-80): 106 % of control
T/C [3]: 100 % of control and 117 % of control

Nc1nc(N)nc(N/C=C/C(=O)O)n1
T/C (dose: 50.0 mg/kg/injection, schedule: Q01DX005 (ip), vehicle: water): 99 % of control
T/C (dose: 100.0 mg/kg/injection, schedule: Q01DX005 (ip), vehicle: water): 105 % of control
T/C (dose: 200.0 mg/kg/injection, schedule: Q01DX005 (ip), vehicle: water): 106 % of control

COc1ccc2c(CCN(/C=C/C(C)=O)C(C)=O)cn(C(C)=O)c2c1
T/C (dose: 12.5 mg/kg/injection, schedule: Q01DX005 (ip), vehicle: Klucel (hydroxypropylcellulose) (HPC)): 109 % of control
T/C [5]: 104 % of control
T/C [6]: 100 % of control

[Se]=[Hf]=[Se]
T/C [7]: 97 % of control
T/C [8]: 97 % of control
T/C [9]: 94 % of control

CNC(=O)OCc1c(COC(=O)NC)c(-c2ccccc2)n(C)c1-c1ccccc1
T/C (dose: 10.0 mg/kg/injection, schedule: Q01DX009 (ip), vehicle: distilled water + Tween-80): 164 % of control
T/C [4]: 181 % of control
T/C (dose: 20.0 mg/kg/injection, schedule: Q01DX009 (ip), vehicle: distilled water + Tween-80): 205 % of control
T/C (dose: 40.0 mg/kg/injection, schedule: Q01DX009 (ip), vehicle: distilled water + Tween-80): 124 % of control

Cc1c(N=Nc2ccccc2Cl)c(-c2ccccc2)nn1C(=S)S
T/C [1]: 111 % of control
T/C [10]: 108 % of control
T/C [2]: 111 % of control

COc1cccc(OC)c1OCc1ccc(OCc2ccccc2)cc1
T/C [1]: 100 % of control
T/C [10]: 95 % of control
T/C [2]: 105 % of control

CCC(=O)NC(Cc1cccc(F)c1)C(=O)O (centres undefined)
T/C (dose: 6.25 mg/kg/injection, schedule: Q01DX009 (ip), vehicle: saline): 112 % of control
T/C (dose: 12.5 mg/kg/injection, schedule: Q01DX009 (ip), vehicle: saline): 102 % of control

COc1ccc2c(c1)OC(=O)C(S(=O)(=O)c1ccccc1)C2 (centres undefined)
T/C [1]: 102 % of control
T/C [10]: 96 % of control
T/C [2]: 101 % of control
